Target: T1, recombinant human Meningioma Expressed Antigen 5 (MGEA5), also referred to as O-GlcNAcase (OGA) (Homo sapiens, UniProt O60502)
T1 construct: Full length OGA enzyme was purchased at OriGene (cat # TP322411); purchased OriGene TP322411
T1 sequence (O60502 1-916): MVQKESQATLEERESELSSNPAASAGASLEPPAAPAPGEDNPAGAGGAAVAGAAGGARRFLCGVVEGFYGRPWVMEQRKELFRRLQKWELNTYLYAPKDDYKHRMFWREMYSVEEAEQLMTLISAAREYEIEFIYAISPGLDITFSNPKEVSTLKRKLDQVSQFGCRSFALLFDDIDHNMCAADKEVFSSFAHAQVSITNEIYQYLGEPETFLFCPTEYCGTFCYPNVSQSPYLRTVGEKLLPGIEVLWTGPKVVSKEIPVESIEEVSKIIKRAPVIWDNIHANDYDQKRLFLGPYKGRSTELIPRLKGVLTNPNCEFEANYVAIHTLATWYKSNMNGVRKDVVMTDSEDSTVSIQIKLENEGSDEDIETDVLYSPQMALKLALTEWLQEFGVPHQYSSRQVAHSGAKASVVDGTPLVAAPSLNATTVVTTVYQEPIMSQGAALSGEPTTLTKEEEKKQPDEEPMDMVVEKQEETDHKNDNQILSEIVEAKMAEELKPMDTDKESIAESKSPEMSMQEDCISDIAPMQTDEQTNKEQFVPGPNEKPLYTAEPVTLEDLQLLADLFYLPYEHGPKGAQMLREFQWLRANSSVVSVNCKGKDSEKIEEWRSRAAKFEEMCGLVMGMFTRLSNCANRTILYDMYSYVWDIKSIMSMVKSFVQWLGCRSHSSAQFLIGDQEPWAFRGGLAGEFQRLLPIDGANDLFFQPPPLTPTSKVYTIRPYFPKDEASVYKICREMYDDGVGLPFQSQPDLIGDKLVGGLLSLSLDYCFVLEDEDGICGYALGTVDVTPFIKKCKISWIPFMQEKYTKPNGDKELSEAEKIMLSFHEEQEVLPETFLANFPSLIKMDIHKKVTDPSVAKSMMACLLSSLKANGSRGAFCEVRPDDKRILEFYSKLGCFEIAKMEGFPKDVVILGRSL
Assay: OGA biochemical assay: inhibition of FM-GlcNAc hydrolysis, fluorescence (protocol A 10 nM OGA, 1 h; protocol B 2 nM OGA, 6 h)
Conditions: Enzymatic protocol A (10 nM OGA, 1 h); read-out: Enzymatic Emax (%)
Text: The assay is based on the inhibition of the hydrolysis of fluorescein mono-B-D-N-Acetyl-Glucosamine (FM-GlcNAc) (Mariappa et al. 2015, Biochem J 470:255) by the recombinant human Meningioma Expressed Antigen 5 (MGEA5), also referred to as 0-GlcNAcase (OGA). The hydrolysis FM-GlcNAc (Marker Gene technologies, cat # M1485) results in the formation of β-D-N-glucosamineacetate and fluorescein. The fluorescence of the latter can be measured at excitation wavelength 485 nm and emission wavelength 538 nm. An increase in enzyme activity results in an increase in fluorescence signal. Full length OGA enzyme was purchased at OriGene (cat # TP322411). The enzyme was stored in 25 mM Tris.HCl, pH 7.3, 100 mM glycine, 10% glycerol at −20° C. Thiamet G and GlcNAcStatin were tested as reference compounds (Yuzwa et al. 2008 Nature Chemical Biology 4:483; Yuzwa et al. 2012 Nature Chemical Biology 8:393). The assay was performed in 200 mM Citrate/phosphate buffer supplemented with 0.005% Tween-20. 35.6 g Na2HPO4 2 H2O (Sigma, # C0759) were dissolved in 1 L water to obtain a 200 mM solution. 19.2 g citric acid (Merck, #1.06580) was dissolved in 1 L water to obtain a 100 mM solution. pH of the sodiumphosphate solution was adjusted with the citric acid solution to 7.2. The buffer to stop the reaction consists of a 500 mM Carbonate buffer, pH 11.0. 734 mg FM-GlcNAc were dissolved in 5.48 mL DMSO to obtain a 250 mM solution and was stored at −20° C. OGA was used at a 10 nM (protocol A) or 2 nM (protocol B) concentration and FM-GlcNAc at a 100 uM final concentration. Dilutions were prepared in assay buffer.
50 nl of a compound dissolved in DMSO was dispensed on Black Proxiplate™ 384 Plus Assay plates (Perkin Elmer, #6008269) and 3 μl fl-OGA enzyme mix added subsequently. Plates were pre-incubated for 60 min at room temperature and then 2 μl FM-GlcNAc substrate mix added. […] Plates were briefly centrifuged for 1 min at 1000 rpm and incubate at room temperature for 1 h (10 nM OGA, protocol A) or 6 h (2 nM OGA, protocol B). To stop the reaction 5 μl STOP buffer were added and plates centrifuge again 1 min at 1000 rpm. Fluorescence was quantified in the Thermo Scientific Fluoroskan Ascent or the PerkinElmer EnVision with excitation wavelength 485 nm and emission wavelength 538 nm.
For analysis a best-fit curve is fitted by a minimum sum of squares method. From this an IC50 value and Hill coefficient was obtained. High control (no inhibitor) and low control (saturating concentrations of standard inhibitor) were used to define the minimum and maximum values.

Emax [%]	Structure (SMILES)
101	CC(=O)Nc1ncc(CN2CC[C@@H](C)[C@H](c3cc4ncccc4[nH]3)C2)s1 (racemic) [Compound 22]
99.7	CC(=O)Nc1ncc(S(=O)(=O)N2CCCC(c3cc4ncccc4[nH]3)C2)s1 (single isomer, unassigned) [Compound 4]
92.3	CC(=O)Nc1ncc(CN2CCCC(c3cc4ncccc4[nH]3)C2)s1 (single isomer, unassigned) [Compound 6]
104	CC(=O)Nc1ncc(CN2CCC[C@H](c3cc4ncccc4[nH]3)C2)s1 (single isomer, unassigned) [Compound 7]
101	CC(=O)Nc1ncc(CN2CCCC(c3cc4cccnc4[nH]3)C2)s1 (stereo not drawn) [Compound 8]

Same assay, conditions: Enzymatic protocol A (10 nM OGA, 1 h); read-out: Enzymatic hOGA; pIC50 (converted)

IC50 [nM]	Structure (SMILES)
41.7	CC(=O)Nc1ncc(CN2CC[C@@H](C)[C@H](c3cc4ncccc4[nH]3)C2)s1 (racemic) [Compound 22]
178	CC(=O)Nc1ncc(S(=O)(=O)N2CCCC(c3cc4ncccc4[nH]3)C2)s1 (single isomer, unassigned) [Compound 4]
1660	CC(=O)Nc1ncc(CN2CCCC(c3cc4ncccc4[nH]3)C2)s1 (single isomer, unassigned) [Compound 6]
18.2	CC(=O)Nc1ncc(CN2CCC[C@H](c3cc4ncccc4[nH]3)C2)s1 (single isomer, unassigned) [Compound 7]
112	CC(=O)Nc1ncc(CN2CCCC(c3cc4cccnc4[nH]3)C2)s1 (stereo not drawn) [Compound 8]

Same assay, conditions: Enzymatic protocol B (2 nM OGA, 6 h); read-out: Enzymatic Emax (%)

Emax [%]	Structure (SMILES)
102	CC(=O)Nc1ncc(CN2CC[C@@H](C)[C@H](c3cc4ncccc4[nH]3)C2)s1 (racemic) [Compound 22]
99.4	CC(=O)Nc1ncc(S(=O)(=O)N2CCCC(c3cc4ncccc4[nH]3)C2)s1 (single isomer, unassigned) [Compound 4]
79.1	CC(=O)Nc1ncc(CN2CCCC(c3cc4ncccc4[nH]3)C2)s1 (single isomer, unassigned) [Compound 6]
100	CC(=O)Nc1ncc(CN2CCC[C@H](c3cc4ncccc4[nH]3)C2)s1 (single isomer, unassigned) [Compound 7]
100	CC(=O)Nc1ncc(CN2CCCC(c3cc4cccnc4[nH]3)C2)s1 (stereo not drawn) [Compound 8]

Same assay, conditions: Enzymatic protocol B (2 nM OGA, 6 h); read-out: Enzymatic hOGA; pIC50 (converted)

IC50 [nM]	Structure (SMILES)
22.4	CC(=O)Nc1ncc(CN2CC[C@@H](C)[C@H](c3cc4ncccc4[nH]3)C2)s1 (racemic) [Compound 22]
186	CC(=O)Nc1ncc(S(=O)(=O)N2CCCC(c3cc4ncccc4[nH]3)C2)s1 (single isomer, unassigned) [Compound 4]
2690	CC(=O)Nc1ncc(CN2CCCC(c3cc4ncccc4[nH]3)C2)s1 (single isomer, unassigned) [Compound 6]
25.1	CC(=O)Nc1ncc(CN2CCC[C@H](c3cc4ncccc4[nH]3)C2)s1 (single isomer, unassigned) [Compound 7]
105	CC(=O)Nc1ncc(CN2CCCC(c3cc4cccnc4[nH]3)C2)s1 (stereo not drawn) [Compound 8]

Same assay, conditions: comparative table; protocol not given; read-out: Emax (OGA inhibitory activity, comparison with 1,4-disubstituted piperidine comparator)

Emax [%]	Structure (SMILES)
104	CC(=O)Nc1ncc(CN2CCC[C@H](c3cc4ncccc4[nH]3)C2)s1 (single isomer, unassigned) [Compound 7]

Same assay, conditions: comparative table; protocol not given; read-out: pIC50 (OGA inhibitory activity, comparison with 1,4-disubstituted piperidine comparator) (converted)

IC50 [nM]	Structure (SMILES)
18.2	CC(=O)Nc1ncc(CN2CCC[C@H](c3cc4ncccc4[nH]3)C2)s1 (single isomer, unassigned) [Compound 7]

Same assay, conditions: greater than the corresponding 1,4-disubstituted piperidine compound (comparator)

OGA inhibitory activity compared with comparator	Structure (SMILES)
~1 order of magnitude	CC(=O)Nc1ncc(CN2CCC[C@H](c3cc4ncccc4[nH]3)C2)s1 (single isomer, unassigned) [Compound 7]

Target: T2, OGA (Homo sapiens, UniProt O60502)
T2 construct: endogenous in cells; host or cells: HEK293 cells inducible for P301L mutant human Tau (2N4R)
T2 sequence (O60502 1-916): T1 sequence (O60502 1-916)
Assay: OGA cellular assay: ICC detection of O-GlcNAcylated proteins in HEK293 cells inducible for P301L mutant human Tau
Assay type: cell-based
Conditions: 6 hours incubation
Experimental: HEK293 cells inducible for P301L mutant human Tau (isoform 2N4R) were established at Janssen. Thiamet-G was used for both plate validation (high control) and as reference compound (reference EC50 assay validation). OGA inhibition is evaluated through the immunocytochemical (ICC) detection of O-GlcNAcylated proteins by the use of a monoclonal antibody (CTD110.6; Cell Signaling, #9875) detecting O-GlcNAcylated residues as previously described (Dorfmueller et al. 2010 Chemistry & biology, 17:1250).
Inhibition of OGA will result in an increase of 0-GlcNAcylated protein levels resulting in an increased signal in the experiment. Cell nuclei are stained with Hoechst to give a cell culture quality control and a rough estimate of immediate compounds toxicity, if any. ICC pictures are imaged with a Perkin Elmer Opera Phenix plate microscope and quantified with the provided software Perkin Elmer Harmony 4.1.
Cells were propagated in DMEM high Glucose (Sigma, #D5796) following standard procedures. 2 days before the cell assay cells are split, counted and seeded in Poly-D-Lysine (PDL) coated 96-wells (Greiner, #655946) plate at a cell density of 12,000 cells per cm^2 (4,000 cells per well) in 100 μl of Assay Medium (Low Glucose medium is used to reduce basal levels of GlcNAcylation) (Park et al. 2014 The Journal of biological chemistry 289:13519). At the day of compound test medium from assay plates was removed and replenished with 90 μl of fresh Assay Medium. 10 μl of compounds at a 10fold final concentration were added to the wells. Plates were centrifuged shortly before incubation in the cell incubator for 6 hours. DMSO concentration was set to 0.2%. Medium is discarded by applying vacuum. For staining of cells medium was removed and cells washed once with 100 μl D-PBS (Sigma, #D8537). From next step onwards unless other stated assay volume was always 50 μl and incubation was performed without agitation and at room temperature. Cells were fixed in 50 μl of a 4% paraformaldehyde (PFA, Alpha aesar, #043368) PBS solution for 15 minutes at room temperature. […] Before analysis samples were washed 2 times manually for 5 minutes in ICC base buffer.
Imaging is performed using Perkin Elmer Phenix Opera using a water 20× objective and recording 9 fields per well. Intensity readout at 488 nm is used as a measure of O-GlcNAcylation level of total proteins in wells. To assess potential toxicity of compounds nuclei were counted using the Hoechst staining. IC50-values are calculated using parametric non-linear regression model fitting. As a maximum inhibition Thiamet G at a 200 uM concentration is present on each plate. In addition, a concentration response of Thiamet G is calculated on each plate.

Emax [%]	Structure (SMILES)
114	CC(=O)Nc1ncc(CN2CC[C@@H](C)[C@H](c3cc4ncccc4[nH]3)C2)s1 (racemic) [Compound 22]
44.3	CC(=O)Nc1ncc(S(=O)(=O)N2CCCC(c3cc4ncccc4[nH]3)C2)s1 (single isomer, unassigned) [Compound 4]
66.6	CC(=O)Nc1ncc(CN2CCCC(c3cc4ncccc4[nH]3)C2)s1 (single isomer, unassigned) [Compound 6]
114	CC(=O)Nc1ncc(CN2CCC[C@H](c3cc4ncccc4[nH]3)C2)s1 (single isomer, unassigned) [Compound 7]
113	CC(=O)Nc1ncc(CN2CCCC(c3cc4cccnc4[nH]3)C2)s1 (stereo not drawn) [Compound 8]

Same assay, conditions: 6 hours incubation, read-out: Cellular hOGA, pEC50 (converted)

EC50 [nM]	Structure (SMILES)
20.9	CC(=O)Nc1ncc(CN2CC[C@@H](C)[C@H](c3cc4ncccc4[nH]3)C2)s1 (racemic) [Compound 22]
> 10000	CC(=O)Nc1ncc(S(=O)(=O)N2CCCC(c3cc4ncccc4[nH]3)C2)s1 (single isomer, unassigned) [Compound 4]
3630	CC(=O)Nc1ncc(CN2CCCC(c3cc4ncccc4[nH]3)C2)s1 (single isomer, unassigned) [Compound 6]
21.4	CC(=O)Nc1ncc(CN2CCC[C@H](c3cc4ncccc4[nH]3)C2)s1 (single isomer, unassigned) [Compound 7]
148	CC(=O)Nc1ncc(CN2CCCC(c3cc4cccnc4[nH]3)C2)s1 (stereo not drawn) [Compound 8]

From US20190359609A1, “BICYCLIC OGA INHIBITOR COMPOUNDS” (Janssen Pharmaceutica NV, priority 2016, published 2019)
